Source: PubChem BioAssay AID248 (DTP/NCI, 2004)
Toxic doses and inconclusive results are not listed.

System: L1210 leukemia ip in BDF1 mice, survival T/C
Assay: NCI In Vivo Anticancer Drug Screen. Data for tumor model L1210 Leukemia (intraperitoneal) in B6D2F1 (BDF1) mice
Conditions: endpoint: mean survival time, higher = longer survival
Procedure, shortened: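 Transplanted-tumor mice were given test agent; controls received vehicle only. Survival readings from the two groups were divided (treated over control).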

`CN(C)N=Nc1cccnc1` was tested, and the T/C (dose: 8.0 mg/kg/injection, schedule: Q01DX009 (ip), vehicle: saline) was 97 % of control, the T/C (dose: 9.5 mg/kg/injection, schedule: Q01DX001 (ip), vehicle: saline) was 106 % of control and the T/C (dose: 14.0 mg/kg/injection, schedule: Q01DX009 (ip), vehicle: saline) was 103 % of control. The T/C (dose: 19.0 mg/kg/injection, schedule: Q01DX001 (ip), vehicle: saline) was 106 % of control, the T/C (dose: 23.0 mg/kg/injection, schedule: Q01DX009 (ip), vehicle: saline) was 108 % of control and the T/C (dose: 38.0 mg/kg/injection, schedule: Q01DX001 (ip), vehicle: saline) was 117 % of control. For the same compound, the T/C (dose: 57.0 mg/kg/injection, schedule: Q01DX009 (ip), vehicle: saline) was 150 % of control and the T/C (dose: 86.0 mg/kg/injection, schedule: Q01DX009 (ip), vehicle: saline) was 162 % of control.
`O=C1N/C(=N\OCc2ccccc2Cl)CC(NOCc2ccccc2Cl)N1` (configuration not stated) was tested, and the T/C (dose: 100.0 mg/kg/injection, schedule: Q04DX003 (ip), vehicle: saline with Tween-80) was 91 % of control, the T/C (dose: 200.0 mg/kg/injection, schedule: Q04DX003 (ip), vehicle: saline with Tween-80) was 97 % of control and the T/C (dose: 400.0 mg/kg/injection, schedule: Q04DX003 (ip), vehicle: saline with Tween-80) was 95 % of control.
With `CN(C)c1ccc(N=Nc2cc(Cl)cc(Cl)c2)cc1` the T/C (dose: 100.0 mg/kg/injection, schedule: Q01DX001 (ip), vehicle: carboxymethylcellulose (CMC)) was 89 % of control and the T/C (dose: 200.0 mg/kg/injection, schedule: Q01DX001 (ip), vehicle: carboxymethylcellulose (CMC)) was 91 % of control.
With `CS(=O)(=O)OCC#CCOS(C)(=O)=O` the T/C (dose: 8.0 mg/kg/injection, schedule: Q01DX Z (ip), vehicle: saline) was 100 % of control, the T/C (dose: 16.0 mg/kg/injection, schedule: Q01DX Z (ip), vehicle: saline) was 109 % of control and the T/C (dose: 32.0 mg/kg/injection, schedule: Q01DX Z (ip), vehicle: saline) was 105 % of control. The T/C (dose: 64.0 mg/kg/injection, schedule: Q01DX Z (ip), vehicle: saline) was 117 % of control.
